In ChEMBL document CHEMBL1201862, “PubChem BioAssay data set” (2004):
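Interpolation was linear, between the two tested concentrations surrounding the appropriate level; five concentrations were tested over 48 hours in 96-well plates. Abbreviation: GI50, concentration required for 50% inhibition of growth.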 Calls of active or inactive are those of the source. No stated cut-off is given here; in the data, active = GI50 up to about 1.1 µM and inactive = higher.

Tests used:
Test in all cases: NCI anticancer screen, dose series, 48 h
786-0 = system: 786-0
A549 = system: A549
ACHN = system: ACHN
CCRF-CEM = system: CCRF-CEM
COLO 205 = system: COLO 205
DMS-114 = system: DMS-114
DMS-273 = system: DMS-273
EKVX = system: EKVX
HCC 2998 = system: HCC 2998
HCT-116 = system: HCT-116
HCT-15 = system: HCT-15
HL-60 = system: HL-60
HOP-62 = system: HOP-62
HT-29 = system: HT-29
IGROV-1 = system: IGROV-1
K562 = system: K562
KM-20L2 = system: KM-20L2
KM12 = system: KM12
LOX IMVI = system: LOX IMVI
LXFL 529 = system: LXFL 529
M14 = system: M14
M19-MEL = system: M19-MEL
MOLT-4 = system: MOLT-4
Malme-3M = system: Malme-3M
NCI-H226 = system: NCI-H226
NCI-H23 = system: NCI-H23
NCI-H460 = system: NCI-H460
NCI-H522 = system: NCI-H522
OVCAR-3 = system: OVCAR-3
OVCAR-8 = system: OVCAR-8
RPMI-8226 = system: RPMI-8226
SF-268 = system: SF-268
SF-295 = system: SF-295
SF-539 = system: SF-539
SK-MEL-28 = system: SK-MEL-28
SK-MEL-5 = system: SK-MEL-5
SK-OV-3 = system: SK-OV-3
SN12C = system: SN12C
SNB-19 = system: SNB-19
SR = system: SR
SW-620 = system: SW-620
TK-10 = system: TK-10
U-251 = system: U-251
UACC-257 = system: UACC-257
XF498 = system: XF498
A498 = system: A498
CAKI-1 = system: CAKI-1
DLD-1 = system: DLD-1
HOP-18 = system: HOP-18
HOP-92 = system: HOP-92
OVCAR-4 = system: OVCAR-4
OVCAR-5 = system: OVCAR-5
RXF 393 = system: RXF 393
SK-MEL-2 = system: SK-MEL-2
SNB-75 = system: SNB-75
SNB-78 = system: SNB-78
UACC-62 = system: UACC-62
UO-31 = system: UO-31
MCF7 = system: MCF7

In the case of `Oc1ccccc1/C=N/c1ccccc1/N=C/c1ccccc1O`, the GI50 (786-0) is reported as > 100 µM (inactive), the GI50 (A549) is reported as > 100 µM (inactive) and the GI50 (ACHN) is reported as 30.2 µM (inactive). For the same molecule, the GI50 (CCRF-CEM) was 8.3 µM (inactive), the GI50 (COLO 205) was > 100 µM (inactive) and the GI50 (DMS-114) was 8.89 µM (inactive). For the same molecule, the GI50 (DMS-273) was 85.9 µM (inactive), the GI50 (EKVX) was > 100 µM (inactive) and the GI50 (HCC 2998) was > 100 µM (inactive). For the same molecule, the GI50 (HCT-116) was > 100 µM (inactive), the GI50 (HCT-15) was 79.4 µM and the GI50 (HL-60) was 15 µM (inactive). The GI50 (HOP-62) was > 100 µM (inactive), the GI50 (HT-29) was > 100 µM (inactive) and the GI50 (IGROV-1) was > 100 µM (inactive). For the same molecule, the GI50 (K562) was 21.5 µM (inactive), the GI50 (KM-20L2) was > 100 µM (inactive) and the GI50 (KM12) was > 100 µM (inactive). For the same molecule, the GI50 (LOX IMVI) was > 100 µM (inactive), the GI50 (LXFL 529) was 31.7 µM (inactive) and the GI50 (M14) was > 100 µM (inactive). The GI50 (M19-MEL) was > 100 µM (inactive), the GI50 (MOLT-4) was 16.1 µM (inactive) and the GI50 (Malme-3M) was > 100 µM (inactive). The GI50 (NCI-H226) was 65.6 µM (inactive), the GI50 (NCI-H23) was 38.3 µM (inactive) and the GI50 (NCI-H460) was 62.8 µM (inactive). The GI50 (NCI-H522) was 16.7 µM (inactive), the GI50 (OVCAR-3) was 36.6 µM (inactive) and the GI50 (OVCAR-8) was > 100 µM (inactive). For the same molecule, the GI50 (RPMI-8226) was 62.7 µM (inactive), the GI50 (SF-268) was 88.1 µM (inactive) and the GI50 (SF-295) was 88.9 µM (inactive). The GI50 (SF-539) was 71.3 µM (inactive), the GI50 (SK-MEL-28) was > 100 µM (inactive) and the GI50 (SK-MEL-5) was 86.1 µM (inactive). For the same molecule, the GI50 (SK-OV-3) was > 100 µM (inactive), the GI50 (SN12C) was > 100 µM (inactive) and the GI50 (SNB-19) was 34.4 µM (inactive). The GI50 (SR) was 19.5 µM (inactive), the GI50 (SW-620) was > 100 µM (inactive) and the GI50 (TK-10) was > 100 µM (inactive). For the same molecule, the GI50 (U-251) was 30.9 µM (inactive), the GI50 (UACC-257) was 38.7 µM (inactive) and the GI50 (XF498) was 47.6 µM (inactive).
In the case of `Cc1ccc(-c2c(N)nc(NC#N)nc2CCC(=O)Nc2ccccc2[N+](=O)[O-])cc1`, the GI50 (786-0) is reported as > 100 µM (inactive), the GI50 (A498) is reported as > 100 µM (inactive) and the GI50 (A549) is reported as > 100 µM (inactive). The GI50 (ACHN) was > 100 µM (inactive), the GI50 (CAKI-1) was > 100 µM (inactive) and the GI50 (CCRF-CEM) was > 100 µM (inactive). The GI50 (COLO 205) was > 100 µM (inactive), the GI50 (DLD-1) was > 100 µM (inactive) and the GI50 (DMS-114) was > 100 µM (inactive). The GI50 (DMS-273) was > 100 µM (inactive), the GI50 (EKVX) was > 100 µM (inactive) and the GI50 (HCC 2998) was > 100 µM (inactive). For the same molecule, the GI50 (HCT-116) was > 100 µM (inactive), the GI50 (HCT-15) was > 100 µM and the GI50 (HL-60) was > 100 µM (inactive). The GI50 (HOP-18) was > 100 µM (inactive), the GI50 (HOP-62) was > 100 µM (inactive) and the GI50 (HOP-92) was > 100 µM (inactive). For the same molecule, the GI50 (HT-29) was > 100 µM (inactive), the GI50 (IGROV-1) was > 100 µM (inactive) and the GI50 (K562) was > 100 µM (inactive). For the same molecule, the GI50 (KM-20L2) was > 100 µM (inactive), the GI50 (KM12) was > 100 µM (inactive) and the GI50 (LOX IMVI) was > 100 µM (inactive). The GI50 (LXFL 529) was > 100 µM (inactive), the GI50 (M14) was > 100 µM (inactive) and the GI50 (M19-MEL) was > 100 µM (inactive). The GI50 (MOLT-4) was > 100 µM (inactive), the GI50 (Malme-3M) was > 100 µM (inactive) and the GI50 (NCI-H226) was > 100 µM (inactive). The GI50 (NCI-H23) was > 100 µM (inactive), the GI50 (NCI-H460) was > 100 µM (inactive) and the GI50 (NCI-H522) was 85.1 µM (inactive). The GI50 (OVCAR-3) was > 100 µM (inactive), the GI50 (OVCAR-4) was > 100 µM (inactive) and the GI50 (OVCAR-5) was > 100 µM (inactive). For the same molecule, the GI50 (RPMI-8226) was > 100 µM (inactive), the GI50 (RXF 393) was > 100 µM (inactive) and the GI50 (SF-268) was > 100 µM (inactive). The GI50 (SF-295) was > 100 µM (inactive), the GI50 (SF-539) was > 100 µM (inactive) and the GI50 (SK-MEL-28) was > 100 µM (inactive). The GI50 (SK-MEL-2) was > 100 µM (inactive), the GI50 (SK-MEL-5) was > 100 µM (inactive) and the GI50 (SK-OV-3) was > 100 µM (inactive). The GI50 (SN12C) was > 100 µM (inactive), the GI50 (SNB-19) was > 100 µM (inactive) and the GI50 (SNB-75) was > 100 µM (inactive). For the same molecule, the GI50 (SNB-78) was > 100 µM (inactive), the GI50 (SR) was > 100 µM (inactive) and the GI50 (SW-620) was > 100 µM (inactive). For the same molecule, the GI50 (TK-10) was > 100 µM (inactive), the GI50 (U-251) was > 100 µM (inactive) and the GI50 (UACC-257) was > 100 µM (inactive). For the same molecule, the GI50 (UACC-62) was > 100 µM (inactive) and the GI50 (UO-31) was > 100 µM (inactive).
For `CC1[C@@H]2CC=C3[C@H]4CCC5Cc6nc7c(nc6C[C@@]5(C)C4(O)CC(=O)[C@]32CO[C@]12OC(C)(C)CC2O)CC1CC[C@@H]2C3=C[C@H]4O[C@@]5(O[C@@](C)(CO)C[C@@H]5O)C(C)[C@@]4(O)[C@]3(C)[C@@H](O)CC2[C@]1(C)C7` (some centres undefined), the GI50 (A498) was 0.000342 µM (active), the GI50 (DMS-114) was 0.00011 µM (active) and the GI50 (DMS-273) was < 0.0001 µM (active). For the same molecule, the GI50 (HCC 2998) was 0.0748 µM (active), the GI50 (HL-60) was < 0.0001 µM (active) and the GI50 (MCF7) was 0.00194 µM (active). For the same molecule, the GI50 (RPMI-8226) was < 0.0001 µM (active), the GI50 (RXF 393) was < 0.0001 µM (active) and the GI50 (SF-295) was < 0.0001 µM (active). For the same molecule, the GI50 (SF-539) was < 0.0001 µM (active), the GI50 (SNB-75) was < 0.0001 µM (active) and the GI50 (TK-10) was 0.0204 µM (active). The GI50 (XF498) was < 0.0001 µM (active).
